Assay results reported in ChEMBL document CHEMBL3822355, “Synthesis and evaluation of substituted 4-(N-benzylamino)cinnamate esters as potential anti-cancer agents and HIV-1 integrase inhibitors” (Bioorg Med Chem Lett, 2016).

How the values were obtained:
[1] = tested on: MDA-MB-231; assay: Anti-cancer activity against human MDA-MB-231 cells assessed as reduction in cell viability after 72 hrs by WST-1 assay; assay type: functional, cell-based; details: MDA-MB-231, 72 h
[2] = Cytotoxicity against HEK293 cells assessed as cell viability at 100 uM after 48 hrs by resazurin assay; assay type: cell-based; details: human, read-out: Activity
[3] = tested on: HeLa; assay: Anti-cancer activity against human HeLa cells assessed as reduction in cell viability after 72 hrs by WST-1 assay; assay type: functional, cell-based

SMILES	IC50 [1]	viability at 48 h, 100 µM [2]	IC50 [3]
COC(=O)/C=C/c1ccc(NCc2cc([N+](=O)[O-])ccc2O)cc1	17.4 µM	108%	16 µM
COC(=O)/C=C/c1ccc(NCc2cc(Br)cc(Br)c2O)cc1	11.5 µM	114%	35.4 µM
COC(=O)/C=C/c1ccc(NCc2cc(Br)ccc2O)cc1	109 µM	98.1%	7.82 µM
COC(=O)/C=C/c1ccc(NCc2cccc(OC)c2O)cc1	73.7 µM	114%	3.04 µM
COC(=O)/C=C/c1ccc(NCc2cc(Cl)cc(Cl)c2O)cc1	9.61 µM	107%	25.9 µM
COC(=O)/C=C/c1ccc(NCc2cc(Cl)ccc2O)cc1	86.4 µM	92.4%	8.56 µM
COC(=O)/C=C/c1ccc(NCc2ccc(O)c(O)c2)cc1	36.6 µM	114%	78.1 µM
COC(=O)/C=C/c1ccc(NCc2ccccc2O)cc1	31.7 µM	94.4%	7.17 µM
COC(=O)/C=C/c1ccc(NCc2cccc(O)c2O)cc1	32.6 µM	82.3%	68.2 µM
CC(=O)O[C@H]1C(=O)[C@@]2(C)[C@H]([C@H](OC(=O)c3ccccc3)[C@]3(O)C[C@H](OC(=O)[C@H](O)[C@@H](NC(=O)c4ccccc4)c4ccccc4)C(C)=C1C3(C)C)[C@]1(OC(C)=O)CO[C@@H]1C[C@@H]2O [PACLITAXEL]			0.0199 µM
